Test results: patent US7235536B2, “Cellulose sulfate and other sulfated polysaccharides to prevent and treat papilloma virus infection and other infections” (Rush Presbyterian-St. Luke's Medical Center, priority 2000, dated 2007)

Legend:
Test in all cases: Microbial challenge of CS gel
Assay type in all cases: cell-based
Pseudomonas aeruginosa = test system: Pseudomonas aeruginosa
Description: (§1) 6% CS was prepared in water as a translucent gel. Twenty grams of the gel was placed in a plastic screw-cap centrifuge tube. The microbial inoculants were prepared, gently vortexed and 0.1 ml inoculant was aseptically pipetted into the 20.0 gram gel. This procedure was repeated for each microbial organism. The samples were incubated at room temperature (20-25° C.) for 14 days or 28 days. The microbes tested and their theoretical yields can be found in Table F. After 14 or 28 days incubation, dilutions (10^−1, 10^−2, 10^−3) of the gels were made in saline and 1 ml plated onto Sabouraud dextrose (Aspergillus and Candida) or onto tryptic soy (other microbes). The number of organisms that grew after 3-7 days at room temperature were counted.
(§2) In another study, CS was dissolved in water at the concentrations indicated below. No other ingredients, including preservatives, were added. The gels were challenged with microbes as described above except that the gels were examined for the presence of microbes after 1, 2, 3, 4 and 7 days. The amount of microbes origially inoculated in the gels is also shown below.

Aspergillus niger = test system: Aspergillus niger
Description: as §1, §2

Candida albicans = test system: Candida albicans
Description: as §1, §2

## sodium cellulose sulfate
Pseudomonas aeruginosa; 6% CS gel
  inactivation of Pseudomonas: completely inactivated
Pseudomonas aeruginosa; 6% CS gel, ATCC 9027, room temperature, Day 14
  Day 14 CFU/g: 0 CFU/g
Pseudomonas aeruginosa; 6% CS gel, ATCC 9027, room temperature, Day 28
  Day 28 CFU/g: 0 CFU/g
Pseudomonas aeruginosa; CS 0.06% in water, 24 hours
  Pseudomans aeruginosa CFU: 0 CFU × 10^5/ml
Pseudomonas aeruginosa; CS 0.06% in water, 48 hours
  Pseudomans aeruginosa CFU: 0.48 CFU × 10^5/ml
Pseudomonas aeruginosa; CS 0.06% in water, 72 hours
  Pseudomans aeruginosa CFU: 1.125 CFU × 10^5/ml
Pseudomonas aeruginosa; CS 0.06% in water, 96 hours
  Pseudomans aeruginosa CFU: 1.87 CFU × 10^5/ml
Pseudomonas aeruginosa; CS 0.06% in water, 7 days
  Pseudomans aeruginosa CFU: 2.04 CFU × 10^5/ml
Pseudomonas aeruginosa; CS 0.6% in water, 24 hours
  Pseudomans aeruginosa CFU: 5.43 CFU × 10^5/ml
Pseudomonas aeruginosa; CS 0.6% in water, 48 hours
  Pseudomans aeruginosa CFU: 6.80 CFU × 10^5/ml
Pseudomonas aeruginosa; CS 0.6% in water, 72 hours
  Pseudomans aeruginosa CFU: 4.43 CFU × 10^5/ml
Pseudomonas aeruginosa; CS 0.6% in water, 96 hours
  Pseudomans aeruginosa CFU: 6.92 CFU × 10^5/ml
Pseudomonas aeruginosa; CS 0.6% in water, 7 days
  Pseudomans aeruginosa CFU: 6.05 CFU × 10^5/ml
Pseudomonas aeruginosa; CS 1.2% in water, 24 hours
  Pseudomans aeruginosa CFU: 2.08 CFU × 10^5/ml
Pseudomonas aeruginosa; CS 1.2% in water, 48 hours
  Pseudomans aeruginosa CFU: 2.625 CFU × 10^5/ml
Pseudomonas aeruginosa; CS 1.2% in water, 72 hours
  Pseudomans aeruginosa CFU: 2.31 CFU × 10^5/ml
Pseudomonas aeruginosa; CS 1.2% in water, 96 hours
  Pseudomans aeruginosa CFU: 2.82 CFU × 10^5/ml
Pseudomonas aeruginosa; CS 1.2% in water, 7 days
  Pseudomans aeruginosa CFU: 4.79 CFU × 10^5/ml
Pseudomonas aeruginosa; CS 6% in water, 24 hours
  Pseudomans aeruginosa CFU: 0 CFU × 10^5/ml
Pseudomonas aeruginosa; CS 6% in water, 48 hours
  Pseudomans aeruginosa CFU: 0 CFU × 10^5/ml
Pseudomonas aeruginosa; CS 6% in water, 72 hours
  Pseudomans aeruginosa CFU: 0 CFU × 10^5/ml
Pseudomonas aeruginosa; CS 6% in water, 96 hours
  Pseudomans aeruginosa CFU: 0 CFU × 10^5/ml
Pseudomonas aeruginosa; CS 6% in water, 7 days
  Pseudomans aeruginosa CFU: 0 CFU × 10^5/ml
Pseudomonas aeruginosa; lower CS concentrations
  inactivation of Pseudomonas: not inactivated but growth was prevented
Aspergillus niger; 6% CS gel, ATCC 16404, room temperature, Day 14
  Day 14 CFU/g: 0 CFU/g
Aspergillus niger; 6% CS gel, ATCC 16404, room temperature, Day 28
  Day 28 CFU/g: 0 CFU/g
Aspergillus niger; CS 0.06% in water, 24 hours
  Asperigillus niger CFU: 0 CFU × 10^5/ml
Aspergillus niger; CS 0.06% in water, 48 hours
  Asperigillus niger CFU: 0 CFU × 10^5/ml
Aspergillus niger; CS 0.06% in water, 72 hours
  Asperigillus niger CFU: 0 CFU × 10^5/ml
Aspergillus niger; CS 0.06% in water, 96 hours
  Asperigillus niger CFU: 0 CFU × 10^5/ml
Aspergillus niger; CS 0.06% in water, 7 days
  Asperigillus niger CFU: 0 CFU × 10^5/ml
Aspergillus niger; CS 0.6% in water, 24 hours
  Asperigillus niger CFU: 0 CFU × 10^5/ml
Aspergillus niger; CS 0.6% in water, 48 hours
  Asperigillus niger CFU: 0 CFU × 10^5/ml
Aspergillus niger; CS 0.6% in water, 72 hours
  Asperigillus niger CFU: 0 CFU × 10^5/ml
Aspergillus niger; CS 0.6% in water, 96 hours
  Asperigillus niger CFU: 0 CFU × 10^5/ml
Aspergillus niger; CS 0.6% in water, 7 days
  Asperigillus niger CFU: 0 CFU × 10^5/ml
Aspergillus niger; CS 1.2% in water, 24 hours
  Asperigillus niger CFU: 0 CFU × 10^5/ml
Aspergillus niger; CS 1.2% in water, 48 hours
  Asperigillus niger CFU: 0 CFU × 10^5/ml
Aspergillus niger; CS 1.2% in water, 72 hours
  Asperigillus niger CFU: 0 CFU × 10^5/ml
Aspergillus niger; CS 1.2% in water, 96 hours
  Asperigillus niger CFU: 0 CFU × 10^5/ml
Aspergillus niger; CS 1.2% in water, 7 days
  Asperigillus niger CFU: 0 CFU × 10^5/ml
Aspergillus niger; CS 6% in water, 24 hours
  Asperigillus niger CFU: 0 CFU × 10^5/ml
Aspergillus niger; CS 6% in water, 48 hours
  Asperigillus niger CFU: 0 CFU × 10^5/ml
Aspergillus niger; CS 6% in water, 72 hours
  Asperigillus niger CFU: 0 CFU × 10^5/ml
Aspergillus niger; CS 6% in water, 96 hours
  Asperigillus niger CFU: 0 CFU × 10^5/ml
Aspergillus niger; CS 6% in water, 7 days
  Asperigillus niger CFU: 0 CFU × 10^5/ml
Aspergillus niger; CS gel in as low a concentration as 0.6%
  inactivation of Asperigillus: completely inactivated
Candida albicans; 6% CS gel, ATCC 10231, room temperature, Day 14
  Day 14 CFU/g: 0 CFU/g
Candida albicans; 6% CS gel, ATCC 10231, room temperature, Day 28
  Day 28 CFU/g: 0 CFU/g
Candida albicans; CS 0.06% in water, 24 hours
  Candida albicans CFU: 0 CFU × 10^5/ml
Candida albicans; CS 0.06% in water, 48 hours
  Candida albicans CFU: 0 CFU × 10^5/ml
Candida albicans; CS 0.06% in water, 72 hours
  Candida albicans CFU: 0 CFU × 10^5/ml
Candida albicans; CS 0.06% in water, 96 hours
  Candida albicans CFU: 0 CFU × 10^5/ml
Candida albicans; CS 0.06% in water, 7 days
  Candida albicans CFU: 0 CFU × 10^5/ml
Candida albicans; CS 0.6% in water, 24 hours
  Candida albicans CFU: 0 CFU × 10^5/ml
Candida albicans; CS 0.6% in water, 48 hours
  Candida albicans CFU: 0 CFU × 10^5/ml
Candida albicans; CS 0.6% in water, 72 hours
  Candida albicans CFU: 0.62 CFU × 10^5/ml
Candida albicans; CS 0.6% in water, 96 hours
  Candida albicans CFU: 0.655 CFU × 10^5/ml
Candida albicans; CS 0.6% in water, 7 days
  Candida albicans CFU: 0.535 CFU × 10^5/ml
Candida albicans; CS 1.2% in water, 24 hours
  Candida albicans CFU: 0 CFU × 10^5/ml
